Measurements taken from patent publication US6057324A, “Substituted amidinobenzene derivatives and medicinal compositions thereof” (Yamanouchi Pharmaceutical Co., Ltd, priority 1996, dated 2000).

Columns and labels:
[1] = Metabolic test of an active body (Compound A) in plasma after oral administration to beagle dogs; assay type: in vivo; conditions: 10 mg/kg
Experimental: Compound of Example 2 of the present invention was administered to three beagle dogs orally at a dose of 10 mg/kg as an aqueous solution and then blood was withdrawn over 48 hours after administration. After centrifugation, plasma was separated and then stored at -20° C. until analysis. Compound A (compound name: 4-[4-(4-amidinophenyl)-3-oxo-1-piperazinyl]-1-piperidineacetic acid, an unexamined published Japanese patent application No. 8-333342), which is an active body produced as a metabolite of Compound of Example 2, was determined by the high performance liquid chromatography method to obtain the pharmacokinetic parameters. Compound A was also administered to the same beagle dogs at a dose of 10 mg/kg, and then plasma Compound A concentration was measured. Pharmacokinetic parameters of Compound A after the administration of Compound of Example 2 and Compound A were compared-with each other. In Table 1 it is shown the pharmacokinetic parameters of plasma Compound A after oral administration, and in FIG. 1 it is shown the plasma concentration-time profile of Compound A after oral administration.
Table 1 represents Pharmacokinetic parameters of plasma Compound A after oral administration of Compound of Example 2 and Compound A to beagle dogs at a dose of 10 mg/kg (mean of three animals±standard deviation) and FIG. 1 represents plasma concentration-time profile of Compound A.

platelets = test: Ex vivo platelet aggregation-inhibiting activity in cynomolgus monkeys; conditions: 1 mg/kg via stomach tube, triggers 20 μM ADP and 10 μg/ml collagen
Experimental: Cynomolgus monkeys that had been lightly anesthetized by intramuscular administration of ketamine hydrochloride were fixed on a work-bench, and a sample compound of the present invention dissolved or suspended in a methylcellulose solution was administered into the stomach via a stomach tube at a dose of 1 mg/kg. Before the administration and after the administration at a predetermined period of time, 3 ml (containing 1/10 times by volume of sodium citrate) of the blood was collected from the animal through the femoral vein. From the blood, platelet-rich-plasma (PRP) was obtained according to the method of De Marco et al's (see J. clin. Invest., 77, 1272-1277, 1986). The PRP was adjusted at 3×10^8 /ml with an automatic blood cell counter (MEK-5158 Model, produced by Nihon Koden Co.) before use. Then, 20 μM of ADP and 10 μg/ml of bovine tendon-derived collagen (produced by Niko Bioscience Co.) as triggers to cause the aggregation of the platelets. The degree of the aggregation of the platelets was measured with a platelet aggregation meter (NBS Hematracer 801, produced by Niko Bioscience Co.). The platelet aggregation-inhibiting activity of the tested compound was represented by the inhibition percentage (%) relative to the maximum aggregation percentage of each animal before the addition of the test compound.
The test results are shown in Table 2 together with the results of the Compound A which is the active body of the compounds of the present invention.

Row | Structure (SMILES) | AUC(0-t) at 48 h ([1]; dog, plasma, mean of three animals ± standard deviation, analyte Compound A, read-out: AUC0-48 (area under the time-concentration curve in plasma over 48 hours) of Compound A) | Cmax ([1]; dog, plasma, mean of three animals ± standard deviation, analyte Compound A, read-out: Cmax (maximum plasma concentration) of plasma Compound A) | Tmax ([1]; dog, plasma, mean of three animals ± standard deviation, analyte Compound A, read-out: Tmax (time to reach Cmax) of plasma Compound A) | half-life ([1]; dog, plasma, mean of three animals ± standard deviation, analyte Compound A, read-out: t1/2 (elimination half life) of plasma Compound A (converted)) | Platelet aggregation-inhibiting ratio after 3 hours (platelets) | Platelet aggregation-inhibiting ratio after 6 hours (platelets) | Platelet aggregation-inhibiting ratio after 9 hours (platelets) | bioavailability of Compound A when administered as prodrug (in words) [1] | plasma residence time of Compound A when administered as prodrug (in words) [1] | t1/2 of Compound A compared with administration of Compound A (in words) [1] | Platelet aggregation-inhibiting ratio after 12 hours (platelets) | Platelet aggregation-inhibiting ratio after 24 hours (platelets)
1 | N=C(N)c1ccc(N2CCN(C3CCN(CC(=O)O)CC3)CC2=O)cc1 [Compound A, 4-[4-(4-amidinophenyl)-3-oxo-1-piperazinyl]-1-piperidineacetic acid] | 3550 ± 838 ng·h/mL | 748 ± 175 ng/mL | 1.7 ± 0.6 h | 2.1 h | 19.7 ± 9.4% | 16.3 ± 7.5% | 14.2 ± 5.9% | – | – | – | – | –
2 | CCOC(=O)CN1CCC(N2CCN(c3ccc(C(=N)NO)cc3)C(=O)C2)CC1 [Example 2, ethyl 4-[4-(4-hydroxyamidinophenyl)-3-oxo-1-piperazinyl]-1-piperidineacetate] | – | – | – | – | 24.7 ± 23.7% | 66.3 ± 15.4% | 88.0 ± 11.0% | increase | increase | greatly prolonged | 89.0% | 54.0 ± 9.0%
3 | CCOC(=O)CN1CCC(N2CCN(c3ccc(C(=N)NC(=O)OC)cc3)C(=O)C2)CC1 [Example 7, Ethyl 4-[4-(4-methoxycarbonylamidinophenyl)-3-oxo-1-piperazinyl]-1-piperidineacetate] | – | – | – | – | 9.0 ± 5.7% | 42.0 ± 14.7% | 60.0 ± 15.6% | – | – | – | 64.3% | 26.0 ± 2.9%
